Assay results published in patent US20210393585A1, “METHOD FOR PREVENTING AND/OR TREATING A STRESS-INDUCED DISEASE” (TZU CHI UNIVERSITY, priority 2020, published 2021).

Legend:
Format in all cases: in vivo
B57BL/6J mice [1] = assay: Cold stress-mediated immunosuppression in anti-platelet (CD41) Ig induced immune thrombocytopenia (ITP) model, platelet counts; settings: for rescue of cold stress-mediated immunosuppression (ITP model): FIG. 8
Description: (§1) Experiment outlines (A and C). The effects of tanshinone IIA treatments on the cold-mediated amelioration of immune thrombocytopenia (ITP) (B) and cold-suppressed bacterial clearance (D) were analyzed. The data are representative of three independent experiments with two mice per group (n=6). ** P<0.01 compared with the respective vehicle (25° C.) groups, ##P<0.01 compared with the respective tanshinone IIA 25° C. groups (B and D).
(§2) The effects of tanshinone I (A), crytotanshinone (B), tanshinone IIA sodium sulfate (C) treatments on the cold-mediated amelioration of immune thrombocytopenia (ITP) were analyzed. The data are representative of three independent experiments with two mice per group (n=6). ** P<0.01 compared with the respective vehicle (25° C.) groups, ##P<0.01 compared with the respective tanshinone IIA 25° C. groups.
(§3) Autoimmune thrombocytopenia (ITP) mouse model, through intravascular injections of anti-platelet (CD41) Ig following previously reported methods (Huang et al., Blood 2010; 116:5002-9), was employed to investigate the immunosuppressive property of cold exposure and restraint stress, and immune enhancing properties of tanshinone IIA and its derivatives. The B57BL/6J mice were intravenously injected with 0.1 mg/kg (body weight) of an antiplatelet monoclonal antibody (rat antimouse integrin αIIb/CD41 Ig, clone MWReg30, BD PharMingen) to induce ITP. Mice with or without injections of anti-CD41 Ig were subjected to cold exposure and restraint stress. To address the immune enhancing properties of tanshinone IIA, these mice were further treated with or without tanshinone I, tanshinone IIA, tanshinone IIA sodium sulfate, crytotanshinone (10-2 to 10 mg/kg) treatments. To determine the mouse platelet counts, whole blood samples (100-120 μL) of the mice were collected from the retro-orbital venous plexus and mixed with an anticoagulant, a citrate dextrose solution (38 mM citric acid, 75 mM sodium citrate, and 100 mM dextrose), in Eppendorf tubes. Subsequently, platelet counts were measured using a hematology analyzer (KX-21N, Sysmex) at various time intervals as previously described (Chan et al., Oncotarget 2018; 9:12781-95; Huang et al., Blood 2010; 116:5002-9).

B57BL/6J mice [2] = assay: Restraint stress-mediated immunosuppression in anti-platelet (CD41) Ig induced immune thrombocytopenia (ITP) model, platelet counts; settings: for rescue of restraint stress-mediated immunosuppression (ITP model): restraint (psychological) stress, FIG. 7
Description: Experiment outlines (A). The effects of tanshinone IIA treatments on the restraint stress-mediated amelioration of immune thrombocytopenia (ITP) (B) were analyzed. The data are representative of three independent experiments with two mice per group (n=6). ** P<0.01 compared with the respective vehicle groups in the tanshinone IIA vs. vehicle treatments (B).
as §2, with “restraint stress-mediated” for “cold-mediated”, “(n=6). * P<0.05,” for “(n=6).”, “without stress (0 h)” for “(25° C.)”, “groups, #P<0.05,” for “groups,”, “IIA, without stress groups in the ITP experiments.” for “IIA 25° C. groups.”
as §3

B57BL/6J mice [3] = assay: Cold stress-induced gastrointestinal leakage (circulating Evans blue); settings: stressed, 9 h groups with vs without TSNIIA, #P<0.05, FIG. 3
Description: (§4) Experiment outlines (A). The effects of tanshinone IIA treatments on the amelioration of cold exposure-induced gastrointestinal leakage (B) were analyzed. The data are representative of three independent experiments with two mice per group (n=6). ** P<0.01 compared with the respective 5 h, no stress groups, #P<0.05 compared with the respective stress groups of each time course (B). EB: Evans blue.
(§5) The results of the exemplary rescue of restraint stress-induced gastrointestinal leakage by tanshinone IIA (TSNIIA) treatments are shown in FIG. 1. Evans blue, a gastrointestinal non-absorbable dye, is able to bind circulating albumin to form dye-protein complexes, which cannot normally penetrate the endothelial cell layers of the vascular system, unless the tissue has been damaged (Yao et al., Contrast Media Mol Imaging 2018; 2018:7628037). Accordingly, circulating Evens blue levels are approximately and proportionally correlated to the levels of gastrointestinal injury.

E. coli, BL21 = assay: Cold-suppressed bacterial clearance (surviving bacteria in spleen); settings: mice challenged i.v. with E. coli, compared to vehicle control (without immunosuppression) groups, FIG. 4D
Description: as §1
The bacterium E. coli was cultured using standard methods. To analyze the immunosuppressive effects of cold exposure and restraint stress on bacterial clearance, following our previously developed methods (Chan et al., Oncotarget 2018; 9:12781-95), the experimental mice were challenged by intravenously administering bacteria (E. coli, BL21, 6×10^9 CFU/kg; no mortality within 24 h at 4° C.); a 40-h circulating equilibrium at a 25° C. environment was required before cold exposure (control groups: 25° C. exposure) and restraint stress. One day after treatment with cold exposure or restraint stress, the spleens of the euthanized mice were collected and weighed. After homogenization (homogenizer, BioSpec Products, Racine, Wis., USA) in PBS, surviving bacteria (colony forming units [CFUs]) in the spleen tissues were quantified using the standard plating method. […]

cortisol = assay: Cold stress-induced plasma cortisol (ELISA); settings: mice, FIG. 5
Description: The time course on the effects of tanshinone IIA treatments on the cold-mediated amelioration of immune thrombocytopenia (ITP) (A) and cold-induced elevation of cortisol (B) was analyzed. The data are representative of three independent experiments with two mice per group (n=6). ** P<0.01 compared with the respective vehicle (25° C.)/vehicle (0 h) groups.
Blood samples were collected from experimental mice under cold stress or restraint stress for 7 h. The plasma levels of cortisol were measured using an ELISA kit (Cayman Chemical, Ann Arbor, Mich., USA) as previously described (Chan et al., Oncotarget 2018; 9:12781-95).

B57BL/6J mice [4] = assay: Restraint stress-induced gastrointestinal leakage (circulating Evans blue); settings: stressed, 9 h groups with vs without TSNIIA, #P<0.05, FIG. 1
Description: as §4, with “restraint stress induced” for “cold exposure-induced”, “* P<0.05” for “** P<0.01”
as §5

Row | Compound | rescue of cold stress-mediated immunosuppression (ITP model) (B57BL/6J mice [1]) | rescue of restraint stress-mediated immunosuppression (ITP model) (B57BL/6J mice [2]) | platelet counts after cold stress in anti-platelet (CD41) Ig induced thrombocytopenia (B57BL/6J mice [1]; compared to vehicle control (without immunosuppression) groups, FIG. 4B) | cold stress-induced gastrointestinal injury (circulating Evans blue levels) (B57BL/6J mice [3]) | bacterial clearance rate after cold stress (E. coli, BL21) | platelet counts after restraint stress in anti-platelet (CD41) Ig induced thrombocytopenia (B57BL/6J mice [2]; restraint stress, compared to vehicle control (without immunosuppression) groups, FIG. 2) | cold stress-induced levels of circulating cortisol (cortisol) | restraint stress-induced gastrointestinal injury (circulating Evans blue levels) (B57BL/6J mice [4])
1 | C[C@H]1COC2=C1C(=O)C(=O)c1c2ccc2c1CCCC2(C)C [crytotanshinone] | exert similar immune enhancing properties under cold stress | exert similar immune enhancing properties under psychological stress | – | – | – | – | – | –
2 | Cc1coc2c1C(=O)C(=O)c1c-2ccc2c1CCCC2(C)C [tanshinone IIA] | exert similar immune enhancing properties under cold stress | exert similar immune enhancing properties under psychological stress | remain low and do not show statistical significance as compared to the vehicle control | able to ameliorate cold stress-induced gastrointestinal injury | the bacterial clearance rate is high | remain low and do not show statistical significance as compared to the vehicle control | counteract the cold stress-induced levels of circulating anti-inflammatory steroid hormone cortisol | able to ameliorate stress-induced gastrointestinal injury
3 | Cc1coc2c1C(=O)C(=O)c1c-2ccc2c(C)cccc12 [tanshinone I] | exert similar immune enhancing properties under cold stress | exert similar immune enhancing properties under psychological stress | – | – | – | – | – | –
4 | tanshinone IIA sodium sulfate | exert similar immune enhancing properties under cold stress | exert similar immune enhancing properties under psychological stress | – | – | – | – | – | –
